Measurements reported in ChEMBL document CHEMBL5120927, “LEGO-Lipophosphonoxins: A Novel Approach in Designing Membrane Targeting Antimicrobials” (J Med Chem, 2022).
The source made the active and inactive calls. The rule behind the calls is not given here.

Columns and labels:
[1] = tested on: Staphylococcus epidermidis; test: Antibacterial activity against Staphylococcus epidermidis CCM 7221 assessed as inhibition of bacterial growth incubated for 24 hrs by microdilution assay; format: functional
[2] = tested on: Staphylococcus aureus; test: Antibacterial activity against wild type Staphylococcus aureus 4561/A assessed as reduction in microbial growth incubated for 24 hrs by microdilution assay; format: functional
[3] = tested on: Enterococcus faecium; test: Antibacterial activity against vancomycin resistant Enterococcus faecium 419/ANA assessed as reduction in microbial growth incubated for 24 hrs by microdilution assay; format: functional
[4] = tested on: Staphylococcus aureus; test: Antibacterial activity against […] Staphylococcus aureus 4461/A assessed as reduction in microbial growth incubated for 24 hrs by microdilution assay; format: functional
[5] = tested on: Staphylococcus aureus; test: Antibacterial activity against wild type Staphylococcus aureus 4557/A assessed as reduction in microbial growth incubated for 24 hrs by microdilution assay; format: functional
[6] = tested on: Staphylococcus aureus; test: microbe, parasite or virus in culture; conditions: 4880/C, 24 h
Description: Antibacterial activity against wild type Staphylococcus aureus 4880/C assessed as reduction in microbial growth incubated for 24 hrs by microdilution assay

[7] = tested on: Staphylococcus aureus; test: Antibacterial activity against wild type Staphylococcus aureus 4482/A assessed as reduction in microbial growth incubated for 24 hrs by microdilution assay; format: functional
[8] = Toxicity in rabbit assessed as pathological changes in necropsy at 10 to 200 mg/kg, po; format: organism-based, Oryctolagus cuniculus; conditions: in vivo, dose 10-200 mg/kg
[9] = tested on: Enterococcus faecalis; test: Antibacterial activity against Enterococcus faecalis ATCC 29212 = CCM 4224 assessed as inhibition of bacterial growth incubated for 24 hrs by microdilution assay; format: functional
[10] = tested on: Escherichia coli; test: Antibacterial activity against Escherichia coli ATCC 25922 = CCM 3954 assessed as inhibition of bacterial growth incubated for 24 hrs in presence of BSA by microdilution assay; format: functional
[11] = Hemolytic activity in human RBC assessed as haemoglobin release measured after 3 hr; format: toxicity, cell-based, Erythrocyte; conditions: red blood cells (erythrocytes)
[12] = tested on: Staphylococcus aureus; test: Antibacterial activity against wild type Staphylococcus aureus 4679/B assessed as reduction in microbial growth incubated for 24 hrs by microdilution assay; format: functional
[13] = tested on: Pseudomonas aeruginosa; test: Antibacterial activity against multidrug-resistant Pseudomonas aeruginosa assessed as reduction in microbial growth incubated for 24 hrs by microdilution assay; format: functional
[14] = Toxicity in rabbit assessed as clinical sign at 0.5 to 15 mg/kg, sc; format: organism-based, Oryctolagus cuniculus; conditions: in vivo, dose 0.5-15 mg/kg
[15] = tested on: Staphylococcus aureus; test: Antibacterial activity against wild type Staphylococcus aureus 4740/B assessed as reduction in microbial growth incubated for 24 hrs by microdilution assay; format: functional
[16] = tested on: Escherichia coli; test: Antibacterial activity against multidrug-resistant Escherichia coli CE5556 expressing CTX-M-15 assessed as reduction in microbial growth incubated for 24 hrs by microdilution assay; format: functional
[17] = tested on: Staphylococcus aureus; test: microbe, parasite or virus in culture; conditions: 4862/C, 24 h
Description: Antibacterial activity against wild type Staphylococcus aureus 4862/C assessed as reduction in microbial growth incubated for 24 hrs by microdilution assay

[18] = tested on: Staphylococcus aureus; test: Antibacterial activity against Staphylococcus aureus ATCC 29213 = CCM 4223 assessed as inhibition of bacterial growth incubated for 24 hrs by microdilution assay; format: functional
[19] = tested on: Staphylococcus aureus; test: Antibacterial activity against wild type Staphylococcus aureus 5079/C assessed as reduction in microbial growth incubated for 24 hrs by microdilution assay; format: functional
[20] = Toxicity in rabbit assessed as pathological changes in necropsy at 0.5 to 15 mg/kg, sc; format: organism-based, Oryctolagus cuniculus; conditions: in vivo, dose 0.5-15 mg/kg
[21] = tested on: Staphylococcus aureus; test: Antibacterial activity against […] Staphylococcus aureus 4463/A assessed as reduction in microbial growth incubated for 24 hrs by microdilution assay; format: functional
[22] = tested on: Staphylococcus aureus; test: Antibacterial activity against wild type Staphylococcus aureus 4738/B assessed as reduction in microbial growth incubated for 24 hrs by microdilution assay; format: functional
[23] = tested on: Pseudomonas aeruginosa; test: Antibacterial activity against Pseudomonas aeruginosa ATCC 27853 = CCM 3955 assessed as inhibition of bacterial growth incubated for 24 hrs by microdilution assay; format: functional
[24] = tested on: Staphylococcus aureus; test: Antibacterial activity against methicillin resistant Staphylococcus aureus 4591/A assessed as reduction in microbial growth incubated for 24 hrs by microdilution assay; format: functional
[25] = tested on: Staphylococcus aureus; test: Antibacterial activity against wild type Staphylococcus aureus 4566/A assessed as reduction in microbial growth incubated for 24 hrs by microdilution assay; format: functional
[26] = tested on: Staphylococcus aureus; test: Antibacterial activity against wild type Staphylococcus aureus 4717/B assessed as reduction in microbial growth incubated for 24 hrs by microdilution assay; format: functional
[27] = tested on: Staphylococcus aureus; test: Antibacterial activity against wild type Staphylococcus aureus 77/CF assessed as reduction in microbial growth incubated for 24 hrs by microdilution assay; format: functional
[28] = tested on: Staphylococcus aureus; test: microbe, parasite or virus in culture; conditions: 5017/C, 24 h
Description: Antibacterial activity against wild type Staphylococcus aureus 5017/C assessed as reduction in microbial growth incubated for 24 hrs by microdilution assay

[29] = tested on: Staphylococcus aureus; test: Antibacterial activity against wild type Staphylococcus aureus 4502/A assessed as reduction in microbial growth incubated for 24 hrs by microdilution assay; format: functional
[30] = tested on: Staphylococcus aureus; test: Antibacterial activity against wild type Staphylococcus aureus 4883/C assessed as reduction in microbial growth incubated for 24 hrs by microdilution assay; format: functional
[31] = tested on: Staphylococcus aureus; test: Antibacterial activity against […] Staphylococcus aureus 4460/A assessed as reduction in microbial growth incubated for 24 hrs by microdilution assay; format: functional
[32] = tested on: Staphylococcus aureus; test: Antibacterial activity against wild type Staphylococcus aureus 4504/A assessed as reduction in microbial growth incubated for 24 hrs by microdilution assay; format: functional
[33] = tested on: Escherichia coli; test: Antibacterial activity against Escherichia coli ATCC 25922 = CCM 3954 assessed as inhibition of bacterial growth incubated for 24 hrs by microdilution assay; format: functional
[34] = tested on: Staphylococcus aureus; test: Antibacterial activity against wild type Staphylococcus aureus 4968/C assessed as reduction in microbial growth incubated for 24 hrs by microdilution assay; format: functional
[35] = tested on: Staphylococcus aureus; test: Antibacterial activity against wild type Staphylococcus aureus 4788/B assessed as reduction in microbial growth incubated for 24 hrs by microdilution assay; format: functional
[36] = tested on: Staphylococcus aureus; test: Antibacterial activity against wild type Staphylococcus aureus 4515/A assessed as reduction in microbial growth incubated for 24 hrs by microdilution assay; format: functional
[37] = tested on: Staphylococcus aureus; test: Antibacterial activity against Staphylococcus aureus ATCC 29213 = CCM 4223 assessed as inhibition of bacterial growth incubated for 24 hrs in presence of BSA by microdilution assay; format: functional
[38] = Toxicity in rabbit assessed as clinical sign at 10 to 200 mg/kg, po; format: organism-based, Oryctolagus cuniculus; conditions: in vivo, dose 10-200 mg/kg
[39] = Gradient chromatographic hydrophobicity index of the compound at pH 3.7 by HPLC analysis; format: ADME
[40] = tested on: Staphylococcus aureus; test: Antibacterial activity against wild type Staphylococcus aureus 4904/C assessed as reduction in microbial growth incubated for 24 hrs by microdilution assay; format: functional
[41] = tested on: Staphylococcus aureus; test: Antibacterial activity against wild type Staphylococcus aureus 78/CF assessed as reduction in microbial growth incubated for 24 hrs by microdilution assay; format: functional
[42] = Toxicity in human cornea epidermis model assessed as eye irritation incubated for 42 hrs; format: tissue-based
[43] = Cytotoxicity against human HepG2 cells assessed as reduction in cell viability; format: toxicity, cell-based
[44] = tested on: Cell membrane; test: Induction of cell envelope damage in Staphylococcus aureus assessed as tubular structure at 8 mg/L measured after 8 hrs by scanning electron microscope analysis
[45] = tested on: Cell membrane; test: Induction of cell envelope damage in Staphylococcus aureus assessed as membranous nanotubes extrude from dying/dead cells at 8 mg/L measured after 8 hrs by scanning electron microscope analysis
[46] = Toxicity in rabbit assessed as maximum tolerated dose administered subcutaneously; set-up: species or system Oryctolagus cuniculus; conditions: in vivo, route sc
[47] = Toxicity in rabbit assessed as maximum tolerated dose administered orally; set-up: species or system Oryctolagus cuniculus; conditions: in vivo, route po
[48] = Toxicity in rabbit assessed as skin irritation at 100 to 200 mg/L after administration bandaged for 4 hrs and measured after 1 to 72 hrs of contact time; set-up: species or system Oryctolagus cuniculus; conditions: in vivo, topical_or_ocular, dose lower 100 mg/L, time lower 1 hrs, dose upper 200 mg/L, time upper 76 hrs
[49] = Toxicity in human cornea epidermis model assessed as tissue viability pretreated for 1 hr and measured after 42 hrs by MTT assay relative to control; format: tissue-based; conditions: read-out: Activity
[50] = tested on: Staphylococcus aureus; test: Bactericidal activity against Staphylococcus aureus CCM 4223 assessed as reduction in viable cell count measured after 24 hrs by Time kill assay; format: functional, organism-based; conditions: DDE = dose-dependent effect
[51] = tested on: Cell membrane; test: Induction of cell envelope damage in Staphylococcus aureus assessed as loss of cytoplasmic content at 8 mg/L measured after 8 hrs by scanning electron microscope analysis; format: subcellular
[52] = Toxicity in rabbit assessed as eye irritation at 100 mg/L measured at 1 to 168 hrs; set-up: species or system Oryctolagus cuniculus; conditions: in vivo, topical_or_ocular, time 1-168 hrs
[53] = tested on: Cell membrane; test: Induction of cell envelope damage in Staphylococcus aureus assessed as loss of cell integrity at 8 mg/L measured after 8 hrs by scanning electron microscope analysis; format: subcellular
[54] = tested on: Escherichia coli; test: Bactericidal activity against Escherichia coli CCM 3954 assessed as reduction in viable cell count measured after 24 hrs by Time kill assay; format: functional, organism-based; conditions: dose 2-8 mg/L, DDE = dose-dependent effect
[55] = Toxicity in human epidermis model assessed as skin irritation incubated for 42 hrs; format: tissue-based

CCCC/C=C\CCOP(=O)(CCN(CCCN)CCCN)OCCCCCOP(=O)(CCN(CCCN)CCCN)OCC/C=C\CCCC.Cl.Cl.Cl.Cl.Cl.Cl (configuration not stated)
MIC [1]: 0.5 µg/mL
MIC [2]: 4 µg/mL
MIC [3]: 128 µg/mL
MIC [4]: 4 µg/mL
MIC [5]: 2 µg/mL
MIC [6]: 4 µg/mL
MIC [7]: 4 µg/mL
Activity [8]: Non-Toxic
MIC [9]: 32 µg/mL
MIC [10]: 4 µg/mL
HC50 at 3 h [11]: 70 µg/mL
MIC [12]: 4 µg/mL
MIC [13]: 32 µg/mL
Activity [14]: Non-Toxic
MIC [15]: 4 µg/mL
MIC [16]: 4 µg/mL
MIC [17]: 4 µg/mL
MIC [18]: 2 µg/mL
MIC [19]: 4 µg/mL
Activity [20]: Non-Toxic
MIC [21]: 4 µg/mL
MIC [22]: 4 µg/mL
MIC [23]: 32 µg/mL
MIC [24]: 2 µg/mL
MIC [25]: 4 µg/mL
MIC [26]: 2 µg/mL
MIC [27]: 4 µg/mL
MIC [28]: 4 µg/mL
MIC [29]: 4 µg/mL
MIC [30]: 2 µg/mL
MIC [31]: 4 µg/mL
MIC [32]: 4 µg/mL
MIC [33]: 8 µg/mL
MIC [34]: 4 µg/mL
MIC [35]: 4 µg/mL
MIC [36]: 4 µg/mL
MIC [37]: 8 µg/mL
Activity [38]: Non-Toxic
CHI [39]: 33.3
MIC [40]: 4 µg/mL
MIC [41]: 8 µg/mL

CCCCCCCCOP(=O)(CCN(CCCN)CCCN)OCCCCOP(=O)(CCN(CCCN)CCCN)OCCCCCCCC.Cl.Cl.Cl.Cl.Cl.Cl (configuration not stated)
MIC [1]: 1 µg/mL
MIC [2]: 2 µg/mL
MIC [3]: 64 µg/mL
MIC [4]: 2 µg/mL
MIC [5]: 1 µg/mL
Activity [42]: Non-Toxic
MIC [6]: 1 µg/mL
CC50 [43]: 95.9 µM
MIC [7]: 1 µg/mL
Activity [44]: Active
MIC [9]: 4 µg/mL
MIC [10]: 1 µg/mL
Activity [45]: Active
HC50 at 3 h [11]: 263 µg/mL
MIC [12]: 2 µg/mL
MIC [13]: 4 µg/mL
MIC [15]: 1 µg/mL
MIC [16]: 2 µg/mL
MIC [17]: 1 µg/mL
MIC [18]: 2 µg/mL
MTD [46]: > 15 mg/kg
MIC [19]: 1 µg/mL
MIC [21]: 2 µg/mL
MIC [22]: 1 µg/mL
MIC [23]: 4 µg/mL
MIC [24]: 2 µg/mL
MIC [25]: 1 µg/mL
MIC [26]: 1 µg/mL
MTD [47]: > 200 mg/kg
Activity [48]: Non-Toxic
MIC [27]: 2 µg/mL
MIC [28]: 1 µg/mL
MIC [29]: 2 µg/mL
MIC [30]: 1 µg/mL
MIC [31]: 1 µg/mL
MIC [32]: 2 µg/mL
MIC [33]: 2 µg/mL
MIC [34]: 2 µg/mL
MIC [35]: 1 µg/mL
viability at 42 h [49]: > 60%
MIC [36]: 1 µg/mL
MIC [37]: 2 µg/mL
Activity [50]: Dde
Activity [51]: Active
Activity [52]: Non-Toxic
Activity [53]: Active
CHI [39]: 35.3
MIC [40]: 1 µg/mL
Activity [54]: Dde
MIC [41]: 2 µg/mL
Activity [55]: Non-Toxic
